According to publication PMC3880596 (Journal of medicinal chemistry, 2013):

Assays:
[1] = in vitro; conditions: human, microsomes, pH 7.4
[2] = system: P. falciparum African D6 clone; test: microbe, parasite or virus in culture; assay type: cell-based, Plasmodium falciparum; conditions: for IC50: Plasmodium falciparum, D6, read-out: antimalarial activity IC50, CQS D6
[3] = in vitro; conditions: mouse, microsomes, pH 7.4
[4] = system: P. falciparum Indochina W2 clone; test: microbe, parasite or virus in culture; assay type: cell-based, Plasmodium falciparum
[5] = system: P. falciparum multidrug resistant C235 strain (Thailand); test: microbe, parasite or virus in culture; assay type: cell-based, Plasmodium falciparum
[6] = molecular target: T1, recombinant BoNT/A LC (Clostridium botulinum, UniProt P0DPI0); conditions: cited from earlier work
[7] = molecular target: T1, recombinant BoNT/A LC; test: biochemical; conditions: read-out: BoNT/A LC inhibition

T1 sequence (P0DPI0 2-448 limits assumed): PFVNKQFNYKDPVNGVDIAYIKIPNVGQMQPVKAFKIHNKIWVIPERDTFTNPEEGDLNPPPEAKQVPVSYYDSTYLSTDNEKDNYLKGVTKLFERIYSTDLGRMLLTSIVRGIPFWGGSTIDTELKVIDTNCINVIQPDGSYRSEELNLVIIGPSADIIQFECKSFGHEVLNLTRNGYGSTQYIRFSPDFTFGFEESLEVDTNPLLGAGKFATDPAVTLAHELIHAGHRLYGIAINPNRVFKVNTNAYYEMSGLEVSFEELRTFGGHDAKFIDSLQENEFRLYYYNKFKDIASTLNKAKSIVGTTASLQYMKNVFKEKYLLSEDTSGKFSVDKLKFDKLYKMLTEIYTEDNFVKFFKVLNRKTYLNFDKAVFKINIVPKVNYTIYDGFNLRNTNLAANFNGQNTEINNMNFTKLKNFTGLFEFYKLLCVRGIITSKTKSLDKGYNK

SMILES	selectivity index (IC50), SI = ICtox/ICP.f. activity, D6 [2]	selectivity index (IC50), SI = ICtox/ICP.f. activity, W2 [4]	selectivity index (IC50), SI = ICtox/ICP.f. activity, TM91C235 [5]	further results
COc1ccncc1CNCCCNc1ccnc2cc(Cl)ccc12 [compound 23, N-(7-Chloroquinolin-4-yl)-N'-[(4-methoxypyridin-3-yl)methyl]propane-1,3-diamine]	57/1040/93	57/1040/93	57/1040/93	half-life [1]: ≥ 1 h; IC50 [2]: < 9 nM; half-life [3]: ≥ 1 h
Clc1ccc2c(NCCNCc3ccc(Br)cc3)ccnc2c1 [compound 14, N-(4-Bromobenzyl)-N'-(7-chloroquinolin-4-yl)ethane-1,2-diamine]	695/1606/660	695/1606/660	695/1606/660	half-life [1]: ≥ 1 h; half-life [3]: ≥ 1 h
CC(C)(C)c1ccc(CNCCNc2ccnc3cc(Cl)ccc23)cc1 [compound 8, N-(4-Tert-butylbenzyl)-N'-(7-chloroquinolin-4-yl)ethane-1,2-diamine]	245/429/419	245/429/419	245/429/419	
CCN(CC)CCCC(C)Nc1ccnc2cc(Cl)ccc12.O=P(O)(O)O.O=P(O)(O)O (centres unmarked) [CQ, chloroquine, reference compound]				IC50 [2]: 14.2 nM; BoNT/A LC inhibition (in words) [6]: poor BoNT/A LC inhibitors; IC50 ([4]; Plasmodium falciparum, W2, read-out: antimalarial activity IC50, CQR W2): 634 nM; IC50 ([5]; Plasmodium falciparum, read-out: antimalarial activity IC50, MDR TM91C235): 226 nM
CC(C)(C)c1ccc(CNCCCNc2ccnc3cc(Cl)ccc23)cc1 [compound 9, N-(4-Tert-butylbenzyl)-N'-(7-chloroquinolin-4-yl)propane-1,3-diamine]	45/100/68	45/100/68	45/100/68	
COc1ccc(CNCCCNc2ccnc3cc(Cl)ccc23)cc1 [compound 11, N-(7-Chloroquinolin-4-yl)-N'-(4-methoxybenzyl)propane-1,3-diamine]	86/778/95	86/778/95	86/778/95	IC50 [2]: < 9 nM
COc1ccc(CNCCNc2ccnc3cc(Cl)ccc23)cc1 [compound 10, N-(7-Chloroquinolin-4-yl)-N'-(4-methoxybenzyl)ethane-1,2-diamine]	406/1806/362	406/1806/362	406/1806/362	
COc1ccncc1CNCCNc1ccnc2cc(Cl)ccc12 [compound 22, N-(7-Chloroquinolin-4-yl)-N'-[(4-methoxypyridin-3-yl)methyl]ethane-1,2-diamine]	435/4000/588	435/4000/588	435/4000/588	
Clc1ccc2c(NCCNCc3cnccc3Cl)ccnc2c1 [compound 20, N-[(4-Chloropyridin-3-yl)methyl]-N'-(7-chloroquinolin-4-yl)ethane-1,2-diamine]	46/102/78	46/102/78	46/102/78	
Fc1ccc(CNCCNc2ccnc3cc(Cl)ccc23)cc1 [compound 12, N-(7-Chloroquinolin-4-yl)-N'-(4-fluorobenzyl)ethane-1,2-diamine]	350/608/291	350/608/291	350/608/291	
Clc1ccc2c(NCCCNCc3ccncc3)ccnc2c1 [compound 17, N-(7-Chloroquinolin-4-yl)-N'-(pyridin-4-ylmethyl)propane-1,3-diamine]	176/4146/469	176/4146/469	176/4146/469	IC50 [2]: < 9 nM
Clc1ccc2c(NCCCNCc3ccccc3)ccnc2c1 [compound 7, N-Benzyl-N'-(7-chloroquinolin-4-yl)propane-1,3-diamine]	56/169/73	56/169/73	56/169/73	half-life [1]: ≥ 1 h; inhibition at 20 µM [7]: > 50%; half-life [3]: ≥ 1 h
Clc1ccc2c(NCCNCc3cccnc3)ccnc2c1 [compound 18, N-(7-Chloroquinolin-4-yl)-N'-(pyridin-3-ylmethyl)ethane-1,2-diamine]	426/1796/882	426/1796/882	426/1796/882	
Clc1ccc2c(NCCCNCc3ccc(Br)cc3)ccnc2c1 [compound 15, N-(4-Bromobenzyl)-N'-(7-chloroquinolin-4-yl)propane-1,3-diamine]				half-life [1]: ≥ 1 h; half-life [3]: ≥ 1 h
Clc1ccc2c(NCCNCc3ccncc3)ccnc2c1 [compound 16, N-(7-Chloroquinolin-4-yl)-N'-(pyridin-4-ylmethyl)ethane-1,2-diamine]	409/2528/752	409/2528/752	409/2528/752	
Fc1ccc(CNCCCNc2ccnc3cc(Cl)ccc23)cc1 [compound 13, N-(7-Chloroquinolin-4-yl)-N'-(4-fluorobenzyl)propane-1,3-diamine]	110/415/185	110/415/185	110/415/185	
NCCCNc1ccnc2cc(Cl)ccc12 [compound 5, N1-(7-chloroquinolin-4-yl)propane-1,3-diamine]				BoNT/A LC inhibition (in words), tested as fragments [6]: poor BoNT/A LC inhibitors
C=C[C@H]1C[N@@]2CC[C@H]1C[C@H]2[C@H](O)c1ccnc2ccc(OC)cc12 [Quinine]				BoNT/A LC inhibition (in words) [6]: poor inhibitors
Clc1ccc2c(NCCCNCc3cnccc3Cl)ccnc2c1 [compound 21, N-[(4-Chloropyridin-3-yl)methyl]-N'-(7-chloroquinolin-4-yl)propane-1,3-diamine]	52/146/121	52/146/121	52/146/121	
Clc1ccc2c(NCCCNCc3cccnc3)ccnc2c1 [compound 19, N-(7-Chloroquinolin-4-yl)-N'-(pyridin-3-ylmethyl)propane-1,3-diamine]		90/ /317	90/ /317	half-life [1]: ≥ 1 h; half-life [3]: ≥ 1 h
NCCNc1ccnc2cc(Cl)ccc12 [compound 4, N1-(7-chloroquinolin-4-yl)ethane-1,2-diamine]				BoNT/A LC inhibition (in words), tested as fragments [6]: poor BoNT/A LC inhibitors
C=C[C@H]1C[N@@]2CC[C@H]1C[C@@H]2[C@@H](O)c1ccnc2ccc(OC)cc12 [Quinidine]				BoNT/A LC inhibition (in words) [6]: poor inhibitors
Clc1ccc2c(NCCNCc3ccccc3)ccnc2c1 [compound 6, N-Benzyl-N'-(7-chloroquinolin-4-yl)ethane-1,2-diamine]				inhibition at 20 µM [7]: > 50%; IC50 [2]: < 9 nM; IC90 ([4]; Plasmodium falciparum, W2, read-out: antimalarial activity IC90, CQR W2): 14.1 nM
CCN(CC)Cc1cc(Nc2ccnc3cc(Cl)ccc23)ccc1O [Amodiaquine]				BoNT/A LC inhibition (in words) [6]: poor inhibitors
CCN(CC)CCCC(C)Nc1c2ccc(Cl)cc2nc2ccc(OC)cc12 (centres unmarked) [Quinacrine]				BoNT/A LC inhibition (in words) [6]: poor inhibitors
